Here are results for six compounds from BindingDB's records for doi:10.1021/jm990614i (Harvard Medical School, 2000).

Structures are written as SMILES.

Assay [1] deals with Aldehyde dehydrogenase, mitochondrial (Mesocricetus auratus). In words: Inhibition of Hamster Liver mitochondrial ALDH-2.
Assay [2] has the same target. Nature of the assay: Compound was evaluated for the inhibition of Hamster Liver mitochondrial ALDH-2.

In assay [1], `O=C(O)CCCCCCCCCOc1ccc2c(=O)c(-c3ccc(O)cc3)coc2c1` [10-(3-(4-hydroxyphenyl)-4-oxo-4H-chromen-7-yloxy)decanoic acid] showed an IC50 of 0.004 µM. This counts as single-digit nanomolar.

`O=c1c(-c2ccc(O)cc2)coc2cc(OCCC3OCCCO3)ccc12` [7-(2-[1,3]Dioxan-2-yl-ethoxy)-3-(4-hydroxy-phenyl)-chromen-4-one] showed an IC50 in assay [1] of 0.4 µM.

In the case of `C=CCOc1ccc2c(=O)c(-c3ccc(O)cc3)coc2c1` [7-Allyloxy-3-(4-hydroxy-phenyl)-chromen-4-one], in assay [1], inhibition was half-maximal at 0.8 µM (IC50).

Compound `O=c1c(-c2ccc(O)cc2)coc2cc(OCC(O)CO)ccc12` (stereo unspecified) [7-(2,3-Dihydroxy-propoxy)-3-(4-hydroxy-phenyl)-chromen-4-one] registered an IC50 in assay [2] of 0.1 µM.

`CCOc1ccc2c(=O)c(-c3ccc(O)cc3)coc2c1` [7-Ethoxy-3-(4-hydroxy-phenyl)-chromen-4-one] came in with an IC50 in assay [1] of 0.04 µM.

In assay [1], `O=C(O)CCCCCCOc1ccc2c(=O)c(-c3ccc(O)cc3)coc2c1` [7-[3-(4-Hydroxy-phenyl)-4-oxo-4H-chromen-7-yloxy]-heptanoic acid] yielded a concentration for half-maximal inhibition (IC50) of 0.009 µM.

By IC50 is commonly meant the point on the concentration scale where inhibition reaches its midpoint. The low end stands for greater potency, the high end for weaker potency.
